For test [1], the system named is CCRF-CEM. In words: CCK-8 tumor cell proliferation, CCRF-CEM. It is filed as cell-based, Human. Also noted: IC50 for inhibiting the proliferation of tumor cells, CCRF-CEM: scale not given here. The note with it: for IC50 for inhibiting the proliferation of tumor cells, CCRF-CEM: 96 h; for pIC50: Homo sapiens, Table 18, FAK inhibitor based, CCRF-CEM, read-out: IC50 inhibiting proliferation of tumor cells, CCRF-CEM. Here is the method:
(§1) The tumor cells used herein were cultured in a cell culture medium listed in table 4 at 37° C. in an incubator with 5% CO2. Prior to experimentation, all cells used were correctly identified by STR profiling, and tested negative for mycoplasma through routine screenings.
(§2) IC50 values of the compounds of the present disclosure (including the compounds in Tables 1 and 3, and compounds of examples) were measured using the Meilun Cell Counting Kit-8 kit from Dalian Meilun Biotech Co., Ltd. Assay details are as follows: tumor cells were seeded in a 96-well plate at a density listed in Table 5. After 24 h, 100 μL of the inoculated cells were treated with 0.5 μL of the compounds of the present disclosure (including the compounds in Tables 1 and 3, and compounds of examples) at 10 different successively decreasing concentrations (starting at the highest concentration of 10 μM; 5-fold serial dilutions). After the cells were treated with the compounds of the present disclosure for a period of time, the cell viability detection reagent was added to the culture medium for cell viability assessment according to the instructions provided with the CCK-8 kit. […] The growth inhibition of the compounds of the present disclosure on cells was plotted by Prism Graphpad software, and the IC50 values of the compounds of the present disclosure were calculated therefrom.

Test [2] has as its system Kasumi-1. The experiment in a line: CCK-8 tumor cell proliferation, Kasumi-1. It is filed as cell-based, Human. Conditions: 72 h. Here is the method:
as §1, §2

Test [3] concerns MM.1S. In words: CCK-8 tumor cell proliferation, MM.1S. Type of test: cell-based. The note with it: for IC50 for inhibiting the proliferation of tumor cells, MM.1S: 72 h; for pIC50: Homo sapiens, MM1.S, Table 18, FAK inhibitor based, MM.1S, read-out: IC50 inhibiting proliferation of tumor cells, MM.1S. How it is done:
as §1, §2

For test [4], the system named is SR. The experiment in a line: CCK-8 tumor cell proliferation, SR. Conditions: Table 12, designed based on CDK9 inhibitors; 72 h. Type of test: cell-based, Human. How it is done:
as §1, §2

Test [5] deals with Mino. The experiment in a line: CCK-8 tumor cell proliferation, Mino. It is filed as cell-based, Human. Conditions: for IC50 for inhibiting the proliferation of tumor cells, Mino: 72 h; for pIC50: Homo sapiens, Table 18, FAK inhibitor based, Mino, read-out: IC50 inhibiting proliferation of tumor cells, Mino. Here is the method: as §1, §2
Test [6] concerns MDA-MB-231. The experiment in a line: CCK-8 tumor cell proliferation, MDA-MB-231. It is filed as cell-based, Human. The note with it: Homo sapiens; Table 18, FAK inhibitor based; MDA-MB-231; read-out: IC50 inhibiting proliferation of tumor cells, MDA-MB-231. Here is the method: as §1, §2
The test system of test [7] is SW620. The experiment in a line: CCK-8 tumor cell proliferation, SW620. It is filed as cell-based, Human. Conditions: Homo sapiens, SW-620; Table 18, FAK inhibitor based; SW620; read-out: IC50 inhibiting proliferation of tumor cells, SW620. How it is done: as §1, §2
For test [8], the system named is CAL-62. In words: CCK-8 tumor cell proliferation, CAL-62. Type of test: cell-based, Human. Conditions: Homo sapiens, CAL-62; for pIC50: Table 18, FAK inhibitor based, read-out: IC50 inhibiting proliferation of tumor cells, CAL-62; for IC50: Table 23, compared to Comparative Example compounds, read-out: Inhibitory activity (IC50, nM) against tumor cell proliferation, CAL-62. How it is done: as §1, §2

Test [9] has as its system PC-9. The experiment in a line: CCK-8 tumor cell proliferation, PC-9. Type of test: cell-based, Human. The note with it: Homo sapiens; Table 18, FAK inhibitor based; PC-9; read-out: IC50 inhibiting proliferation of tumor cells, PC-9. How it is done: The tumor cells used herein were cultured in a cell culture medium listed in table 4 at 37° C. in an incubator with 5% CO2.
as §2, with “After” for “IC50 values of the compounds of the present disclosure (including the compounds in Tables 1 and 3, and compounds of examples) were measured using the Meilun Cell Counting Kit-8 kit from Dalian Meilun Biotech Co., Ltd. Assay details are as follows: tumor cells were seeded in a 96-well plate at a density listed in Table 5. After”

Test [10] concerns MM.1R. In words: CCK-8 tumor cell proliferation, MM.1R. It is filed as cell-based. The note with it: Table 23, compared to Comparative Example compounds, read-out: Inhibitory activity (IC50, nM) against tumor cell proliferation, MM.1R. How it is done: as §1, §2
Test [11] concerns Jurkat. In words: CCK-8 tumor cell proliferation, Jurkat. It is filed as cell-based, Human. The note with it: Homo sapiens, Table 23, compared to Comparative Example compounds, read-out: Inhibitory activity (IC50, nM) against tumor cell proliferation, Jurkat. Here is the method: as §1, §2
The mark [12] stands for this setting: Table 16, designed based on BET inhibitors.
Setting [13] is: Table 8, designed based on ER inhibitors.
[14] abbreviates: Table 7, designed based on BTK inhibitors.

pIC50: −log10 of the molar value. Like-named read-outs stand apart in the source and are kept apart here. A value given as a limit tells only on which side of the number the result lay.

As to `Cc1sc2c(c1C)C(c1ccc(Cl)cc1)=N[C@@H](CC(=O)N1CCN(Cc3ccc4c(c3)CN(C3CCC(=O)NC3=O)C4=O)CC1)c1nnc(C)n1-2` (stereo partly drawn) [GT-02967, 3-(5-((4-(2-((S)-4-(4-chlorophenyl)-2,3,9-trimethyl-6H-thieno[3,2-f][1,2,4]triazolo[4,3-a][1,4]diazepin-6-yl)acetyl)piperazin-1-yl)methyl)-1-oxoisoindolin-2-yl)piperidine-2,6-dione], the “IC50 for inhibiting the proliferation of tumor cells, CCRF-CEM” value in test [1] (setting [12]) is on record as “A+”. In addition, the “IC50 for inhibiting the proliferation of tumor cells, Kasumi-1” value in test [2] (setting [12]) is recorded as “A+”.
In the case of `CC(C)(C)c1cnc(CSc2cnc(NC(=O)C3CCN(Cc4ccc5c(c4)CN(C4CCC(=O)NC4=O)C5=O)CC3)s2)o1` (stereo not shown) [GT-03242, N-(5-(((5-(tert-butyl)oxazol-2-yl)methyl)thio)thiazol-2-yl)-1-((2-(2,6-dioxopiperidin-3-yl)-1-oxoisoindolin-5-yl)methyl)piperidine-4-carboxamide], the “IC50 for inhibiting the proliferation of tumor cells, MM.1S” value in test [3] (Table 12, designed based on CDK9 inhibitors) was “A+”. The “IC50 for inhibiting the proliferation of tumor cells, SR” value in test [4] is recorded as “A+”.
For `O=C1CCC(N2Cc3cc(CN4CCN(c5ccc(C(=C(CCCl)c6ccccc6)c6ccccc6)cc5)CC4)ccc3C2=O)C(=O)N1` (stereo not shown) [GT-03637, 3-(5-((4-(4-(4-chloro-1,2-diphenylbut-1-en-1-yl)phenyl)piperazin-1-yl)methyl)-1-oxoisoindolin-2-yl)piperidine-2,6-dione], the “IC50 for inhibiting the proliferation of tumor cells, CCRF-CEM” value in [1] (setting [13]) is recorded as “A+”. In addition, the “IC50 for inhibiting the proliferation of tumor cells, Kasumi-1” value in test [2] (setting [13]) was “A+”. Further, the “IC50 for inhibiting the proliferation of tumor cells, Mino” value in [5] (setting [13]) is listed as “A+”.
For the molecule `CNC(=O)c1ccccc1Nc1cc(Nc2ccc(N3CCC(N(C)Cc4ccc5c(c4)CN(C4CCC(=O)NC4=O)C5=O)CC3)cc2OC)ncc1C(F)(F)F` (stereo not shown) [GT-03679, 2-((2-((4-(4-(((2-(2,6-dioxopiperidin-3-yl)-1-oxoisoindolin-5-yl)methyl)(methyl)amino)piperidin-1-yl)-2-methoxyphenyl)amino)-5-(trifluoromethyl)pyridin-4-yl)amino)-N-methylbenzamide], the pIC50 was 6.00 to 6.30 in test [1]; more than 7.30 in test [6]; 6.30 to 7.00 in test [3]; 6.30 to 7.00 in test [7]; 7.00 to 7.30 in [8].
For the molecule `NC(=O)c1ccc(C2CCN(Cc3ccc4c(c3)CN(C3CCC(=O)NC3=O)C4=O)CC2)nc1-c1ccc(Oc2ccccc2)cc1` (stereo not shown) [GT-03693, 6-(1-((2-(2,6-dioxopiperidin-3-yl)-1-oxoisoindolin-5-yl)methyl)piperidin-4-yl)-2-(4-phenoxyphenyl)nicotinamide], the “IC50 for inhibiting the proliferation of tumor cells, CCRF-CEM” value in test [1] (setting [14]) was “A+”. The “IC50 for inhibiting the proliferation of tumor cells, MM.1S” value in test [3] (setting [14]) was “A+”. For the same molecule, the “IC50 for inhibiting the proliferation of tumor cells, Mino” value in test [5] (setting [14]) is on record as “A+”.
Consider `CN(c1cccc(CNc2nc(Nc3ccc(C4CCN(Cc5ccc6c(c5)CN(C5CCC(=O)NC5=O)C6=O)CC4)cc3)ncc2C(F)(F)F)c1)S(C)(=O)=O` (stereo not shown) [GT-03742, N-(3-(((2-((4-(1-((2-(2,6-dioxopiperidin-3-yl)-1-oxoisoindolin-5-yl)methyl)piperidin-4-yl)phenyl)amino)-5-(trifluoromethyl)pyrimidin-4-yl)amino)methyl)phenyl)-N-methylmethanesulfonamide], for which the pIC50 in [6], in test [3] and in [8] was 5.30 to 6.00 throughout.
In the case of `CS(=O)(=O)c1cccc(CNc2nc(Nc3ccc(N4CCN(Cc5ccc6c(c5)CN(C5CCC(=O)NC5=O)C6=O)CC4)cc3)ncc2C(F)(F)F)c1` (stereo not shown) [GT-03792, 3-(5-((4-(4-((4-((3-(methylsulfonyl)benzyl)amino)-5-(trifluoromethyl)pyrimidin-2-yl)amino)phenyl)piperazin-1-yl)methyl)-1-oxoisoindolin-2-yl)piperidine-2,6-dione], the pIC50 in test [1] is more than 7.30; in test [6], more than 7.30; in test [3], more than 7.30; in test [5], 6.30 to 7.00; in [7], more than 7.30; in test [9] it was 5.30 to 6.00. Further, the pIC50 in [8] is more than 7.30.
Regarding `CS(=O)(=O)c1cccc(CNc2nc(Nc3ccc(N4CCN(Cc5ccc6c(c5F)CN(C5CCC(=O)NC5=O)C6=O)CC4)cc3)ncc2C(F)(F)F)c1` (stereo not shown) [GT-03817, 3-(4-fluoro-5-((4-(4-((4-((3-(methylsulfonyl)benzyl)amino)-5-(trifluoromethyl)pyrimidin-2-yl)amino)phenyl)piperazin-1-yl)methyl)-1-oxoisoindolin-2-yl)piperidine-2,6-dione], the pIC50 is more than 7.30 in [1]; more than 7.30 in test [6]; more than 7.30 in test [3]; 7.00 to 7.30 in [5]; more than 7.30 in test [7]; more than 7.30 in test [8].
On to `CS(=O)(=O)c1cccc(CNc2nc(Nc3ccc(N4CCN(Cc5cc6c(cc5F)C(=O)N(C5CCC(=O)NC5=O)C6)CC4)cc3)ncc2C(F)(F)F)c1` (stereo not shown) [GT-03818, 3-(6-fluoro-5-((4-(4-((4-((3-(methylsulfonyl)benzyl)amino)-5-(trifluoromethyl)pyrimidin-2-yl)amino)phenyl)piperazin-1-yl)methyl)-1-oxoisoindolin-2-yl)piperidine-2,6-dione], for which the pIC50 in [1], in test [6], in [3], in [5], in test [7] and in test [8] was more than 7.30 each time.
Consider `CCc1cc2c(cc1N1CCC(N3CCN(CCCc4ccc5c(c4)CN(C4CCC(=O)NC4=O)C5=O)CC3)CC1)C(C)(C)c1[nH]c3cc(C#N)ccc3c1C2=O` (stereo not shown) [GT-04457, 8-(4-(4-(3-(2-(2,6-dioxopiperidin-3-yl)-1-oxoisoindolin-5-yl)propyl)piperazin-1-yl)piperidin-1-yl)-9-ethyl-6,6-dimethyl-11-oxo-6,11-dihydro-5H-benzo[b]carbazole-3-carbonitrile], for which the IC50 in test [10] fell in the range of 5000 to 10000 nM; in test [11] it was 100 to 500 nM; in test [8] it was 5000 to 10000 nM.
Consider `CCc1cc2c(cc1N1CCC(N3CCN(CCc4ccc5c(c4)CN(C4CCC(=O)NC4=O)C5=O)CC3)CC1)C(C)(C)c1[nH]c3cc(C#N)ccc3c1C2=O` (stereo not shown) [GT-04512, 8-(4-(4-(2-(2-(2,6-dioxopiperidin-3-yl)-1-oxoisoindolin-5-yl)ethyl)piperazin-1-yl)piperidin-1-yl)-9-ethyl-6,6-dimethyl-11-oxo-6,11-dihydro-5H-benzo[b]carbazole-3-carbonitrile], for which the IC50 in [10] fell in the range of 1000 to 5000 nM; in test [11], 100 to 500 nM; in [8], 1000 to 5000 nM.
As to `COc1cc(N2CCC(N(C)CCc3ccc4c(c3)CN(C3CCC(=O)NC3=O)C4=O)CC2)ccc1Nc1ncc(Cl)c(Nc2ccccc2P(C)(C)=O)n1` (stereo not shown) [GT-04513, 3-(5-(2-((1-(4-((5-chloro-4-((2-(dimethylphosphoryl)phenyl)amino)pyrimidin-2-yl)amino)-3-methoxyphenyl)piperidin-4-yl)(methyl)amino)ethyl)-1-oxoisoindolin-2-yl)piperidine-2,6-dione], the results for the IC50 in test [10], in [11] and in test [8] were 100 to 500 nM, 1000 to 5000 nM and 1000 to 5000 nM, respectively.

Values taken from patent US20260199323A1, “LIGAND COMPOUNDS FOR E3 UBIQUITIN LIGASE, PROTEIN DEGRADERS DEVELOPED ON BASIS OF LIGAND COMPOUNDS, AND USES THEREOF” (GLUETACS THERAPEUTICS (SHANGHAI) CO., LTD., priority 2021, published 2026).
